In paper PMC3234597, “Two Panels of Steroid Receptor Luciferase Reporter Cell Lines for Compound Profiling” (Combinatorial Chemistry & High Throughput Screening, 2011):
Entries after “also recorded” stand apart in the source; their conditions may differ. Where two headings read alike, the source gives them in different places.

Assays:
Assay type in all cases: cell-based
human ERβ (full-length) = molecular target: T1, human ERβ (full-length) (Homo sapiens, UniProt Q92731); experiment: U2OS-ERβ/3xERE luciferase reporter cell line (full-length receptor); conditions: for EC50: read-out: Log EC50 (converted)
T1 construct: expression vectors encoding full-length steroid receptors: pcDNA3-hERα and pcDNA3-ERβ; expressed in transfected cells; host or cells: U2OS

GR-LBD fused to Gal4-DBD = molecular target: T2, GR-LBD fused to Gal4-DBD (Homo sapiens, UniProt P04150); experiment: U2OS-GR-LBD/9xGal4UAS luciferase reporter cell line; conditions: for Log EC50: agonist mode, 20 h, log10 of molar EC50, mean ± SEM; for Log EC50 / Log IC50: GR-LBD/9xGal4UAS; for Log IC50: antagonist mode, in the presence of 5 nM dexamethasone, log10 of molar IC50, mean ± SEM
T2 construct: expressed in transfected cells; host or cells: U2OS
T2 sequence (P04150 524-758 limits assumed): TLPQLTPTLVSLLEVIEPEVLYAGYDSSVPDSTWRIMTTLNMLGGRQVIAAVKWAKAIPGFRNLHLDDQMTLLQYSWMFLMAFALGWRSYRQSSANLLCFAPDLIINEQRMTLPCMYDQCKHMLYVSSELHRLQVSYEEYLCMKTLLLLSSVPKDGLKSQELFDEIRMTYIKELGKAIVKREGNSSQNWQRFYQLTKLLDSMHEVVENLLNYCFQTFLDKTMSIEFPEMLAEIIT

[1] = molecular target: T3, AR-LBD fused to Gal4-DBD (co-expressed with full-length AR) (Homo sapiens, UniProt P10275); experiment: U2OS-AR-LBD/9xGal4UAS luciferase reporter cell line; conditions: for Log EC50: agonist mode, AR-LBD/9xGal4UAS, 20 h, log10 of molar EC50, mean ± SEM
T3 construct: the following primers were used for the amplification of the LBD region; expressed in transfected cells; host or cells: U2OS
T3 sequence (P10275 669-900 limits assumed): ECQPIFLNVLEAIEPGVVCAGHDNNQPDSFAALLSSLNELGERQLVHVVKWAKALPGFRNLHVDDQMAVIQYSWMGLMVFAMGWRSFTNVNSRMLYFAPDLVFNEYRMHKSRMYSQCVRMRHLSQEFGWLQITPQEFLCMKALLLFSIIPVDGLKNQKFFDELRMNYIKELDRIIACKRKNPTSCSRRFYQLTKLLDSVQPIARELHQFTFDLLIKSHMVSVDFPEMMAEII

[2] = molecular target: T4, ERβ-LBD fused to Gal4-DBD (Homo sapiens, UniProt Q92731); experiment: U2OS-ERβ-LBD/9xGal4UAS luciferase reporter cell line; conditions: for EC50: read-out: Log EC50 (converted)
T4 construct: region comprising ERβ-LBD and a piece of the hinge region; expressed in transfected cells; host or cells: U2OS

PR-LBD fused to Gal4-DBD = molecular target: T5, PR-LBD fused to Gal4-DBD (Homo sapiens, UniProt P06401); experiment: U2OS-PR-LBD/9xGal4UAS luciferase reporter cell line; conditions: for Log EC50: agonist mode, 20 h, log10 of molar EC50, mean ± SEM
T5 construct: PR-LBD region was PCR amplified using the following primer combination; host or cells: U2OS
T5 sequence (P06401 679-913 limits assumed): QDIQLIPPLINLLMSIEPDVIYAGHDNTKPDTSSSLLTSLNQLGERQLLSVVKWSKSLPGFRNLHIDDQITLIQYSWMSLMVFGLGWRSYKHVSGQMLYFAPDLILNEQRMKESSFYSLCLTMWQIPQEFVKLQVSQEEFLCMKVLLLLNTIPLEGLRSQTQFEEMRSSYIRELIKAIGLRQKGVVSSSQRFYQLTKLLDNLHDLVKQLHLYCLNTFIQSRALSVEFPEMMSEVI

MR-LBD fused to Gal4-DBD = molecular target: T6, MR-LBD fused to Gal4-DBD (Homo sapiens, UniProt P08235); experiment: U2OS-MR-LBD/9xGal4UAS luciferase reporter cell line; conditions: for Log EC50: agonist mode, 20 h, log10 of molar EC50, mean ± SEM; for Log EC50 / Log IC50: MR-LBD/9xGal4UAS; for Log IC50: antagonist mode, in the presence of 1 nM aldosterone, log10 of molar IC50, mean ± SEM
T6 construct: MR-LBD was cloned by RT-PCR from total RNA isolated from HEK293 cells; expressed in transfected cells; host or cells: U2OS
T6 sequence (P08235 726-964 limits assumed): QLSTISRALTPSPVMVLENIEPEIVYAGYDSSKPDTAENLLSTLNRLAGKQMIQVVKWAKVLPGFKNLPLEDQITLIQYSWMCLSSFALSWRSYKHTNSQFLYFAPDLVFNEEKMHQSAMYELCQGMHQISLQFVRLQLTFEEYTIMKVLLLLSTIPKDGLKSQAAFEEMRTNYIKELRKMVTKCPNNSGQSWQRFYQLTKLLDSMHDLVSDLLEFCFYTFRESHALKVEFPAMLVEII

[3] = molecular target: T7, ERα^wt-LBD fused to Gal4-DBD (Homo sapiens, UniProt P03372); experiment: U2OS-ERα^wt-LBD/9xGal4UAS luciferase reporter cell line
T7 construct: ERα-LBD (amino acids 303-595) based on GenBank NM_000125; expressed in transfected cells; host or cells: U2OS
T7 sequence (P03372 303-595): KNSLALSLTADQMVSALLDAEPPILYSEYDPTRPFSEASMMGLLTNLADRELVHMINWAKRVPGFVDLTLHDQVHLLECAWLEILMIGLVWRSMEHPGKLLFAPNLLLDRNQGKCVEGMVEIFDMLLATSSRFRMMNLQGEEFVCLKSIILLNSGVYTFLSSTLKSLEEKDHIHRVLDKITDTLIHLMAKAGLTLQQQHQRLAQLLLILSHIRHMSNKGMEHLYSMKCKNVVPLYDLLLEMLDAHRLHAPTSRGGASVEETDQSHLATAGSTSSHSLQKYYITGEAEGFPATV

[4] = molecular target: T8, ERα^G420C-LBD fused to Gal4-DBD (Homo sapiens, UniProt P03372, G420C); experiment: U2OS-ERα^G420C-LBD/9xGal4UAS luciferase reporter cell line
T8 construct: expressed in transfected cells; host or cells: U2OS
T8 sequence (P03372 311-547 G420C limits assumed): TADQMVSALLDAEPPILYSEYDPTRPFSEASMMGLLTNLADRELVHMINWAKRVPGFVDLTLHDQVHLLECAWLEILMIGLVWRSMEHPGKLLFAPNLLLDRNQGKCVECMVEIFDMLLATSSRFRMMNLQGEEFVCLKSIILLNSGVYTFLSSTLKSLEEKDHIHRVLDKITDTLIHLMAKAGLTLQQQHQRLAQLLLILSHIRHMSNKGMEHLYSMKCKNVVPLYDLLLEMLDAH

[5] = antagonist mode, PR-LBD/9xGal4UAS, log10 of molar IC50, mean ± SEM
[6] = antagonist mode, PR-LBD/9xGal4UAS, log10 of molar IC50, mean ± SEM, read-out: Log IC50 (converted)

T1 sequence (Q92731 whole entry): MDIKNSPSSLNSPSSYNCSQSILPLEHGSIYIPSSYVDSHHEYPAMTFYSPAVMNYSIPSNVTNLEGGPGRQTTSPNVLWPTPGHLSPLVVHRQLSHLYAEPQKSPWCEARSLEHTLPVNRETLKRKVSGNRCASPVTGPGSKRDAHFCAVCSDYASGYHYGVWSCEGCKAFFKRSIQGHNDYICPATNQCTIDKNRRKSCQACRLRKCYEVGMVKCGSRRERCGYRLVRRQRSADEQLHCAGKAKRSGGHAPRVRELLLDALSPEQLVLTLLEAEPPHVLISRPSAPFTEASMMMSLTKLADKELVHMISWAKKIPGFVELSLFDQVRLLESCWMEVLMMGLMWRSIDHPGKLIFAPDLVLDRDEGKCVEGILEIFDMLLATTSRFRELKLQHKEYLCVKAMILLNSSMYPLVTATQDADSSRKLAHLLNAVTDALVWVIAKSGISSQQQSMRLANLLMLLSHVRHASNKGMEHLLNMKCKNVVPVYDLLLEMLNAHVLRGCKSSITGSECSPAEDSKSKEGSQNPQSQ
T4 sequence (Q92731 264-498 limits assumed): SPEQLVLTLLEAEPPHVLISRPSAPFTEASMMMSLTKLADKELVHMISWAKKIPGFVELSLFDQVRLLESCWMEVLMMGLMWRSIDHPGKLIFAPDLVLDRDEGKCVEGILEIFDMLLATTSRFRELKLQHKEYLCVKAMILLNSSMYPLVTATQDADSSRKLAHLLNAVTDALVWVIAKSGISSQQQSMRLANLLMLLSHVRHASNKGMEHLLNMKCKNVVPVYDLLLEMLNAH

SMILES	Log EC50 (PR-LBD fused to Gal4-DBD; PR-LBD/9xGal4UAS)	Log IC50 (PR-LBD fused to Gal4-DBD; [5])	Log EC50 (MR-LBD fused to Gal4-DBD)	Log IC50 (MR-LBD fused to Gal4-DBD)	EC50 (human ERβ (full-length))	EC50 (GR-LBD fused to Gal4-DBD; read-out: Log EC50 (converted))	EC50 [3]	EC50 [1]	EC50 [2]	IC50 (PR-LBD fused to Gal4-DBD; [6])	EC50 (PR-LBD fused to Gal4-DBD; read-out: Log EC50 (converted))	EC50 [4]	EC50 (MR-LBD fused to Gal4-DBD; read-out: Log EC50 (converted))	also measured
CC[C@@H]1Cc2cc(O)ccc2C2=C1c1ccc(O)cc1C[C@H]2CC (relative stereo) [R.R-THC, (R,R)-cis-diethyltetrahydro-2,8-chrysenediol]	> -5.00 M	-5.52 ± 0.70 M	> -5.00 M	-5.08 ± 0.13 M	–	–	–	–	–	–	–	–	–	Log EC50 (human ERβ (full-length); agonist mode, ERβ/3xERE, 20 h, log10 of molar EC50, mean ± SEM): > -5.00 M; Log IC50 (human ERβ (full-length); antagonist mode, ERβ/3xERE, in the presence of 1 nM E2, log10 of molar IC50, mean ± SEM): -7.30 ± 0.14 M; Log EC50 (GR-LBD fused to Gal4-DBD): > -5.00 M; Log IC50 (GR-LBD fused to Gal4-DBD): > -5.00 M; Log IC50 [1]: > -5.500 M; Log EC50 [1]: > -5.00 M; Log EC50 ([2]; agonist mode, ERβ-LBD/9xGal4UAS, 20 h, log10 of molar EC50, mean ± SEM): > -5.00 M; Log IC50 ([2]; antagonist mode, ERβ-LBD/9xGal4UAS, in the presence of 5 nM E2, log10 of molar IC50, mean ± SEM): -7.39 ± 0.15 M
C[C@]12CCC(=O)C=C1CC[C@@H]1[C@@H]2[C@@H](O)C[C@]2(C=O)[C@@H](C(=O)CO)CC[C@@H]12 [Aldosterone, aldosterone]	–	–	–	–	> 10 µM	1.15 µM	> 10 µM	> 10 µM	> 10 µM	3.72 µM	1120 nM	> 10 µM	–	–
C[C@H]1C[C@H]2[C@@H]3CCC4=CC(=O)C=C[C@]4(C)[C@@]3(Cl)[C@@H](O)C[C@]2(C)[C@@]1(O)C(=O)CO [Beclomethasone, beclomethasone]	-5.20 ± 0.05 M	> -5.00 M	-7.95 ± 0.10 M	-7.64 ± 0.10 M	–	–	–	–	–	–	–	–	–	Log EC50 ([3]; agonist mode, ERα^wt-LBD/9xGal4UAS, 20 h, log10 of molar EC50, mean ± SEM): > -5.00 M; Log IC50 ([3]; antagonist mode, ERα^wt-LBD/9xGal4UAS, in the presence of 1 nM E2, log10 of molar IC50, mean ± SEM): > -5.00 M; activity profile in words (MR-LBD fused to Gal4-DBD; MR-LBD expressing reporter cell line, agonist and antagonist mode): only weakly and partially activated; also recorded: pronounced full antagonist effect; Log EC50 ([4]; agonist mode, ERα^G420C-LBD/9xGal4UAS, 20 h, log10 of molar EC50, mean ± SEM): > -5.00 M; Log IC50 ([4]; antagonist mode, ERα^G420C-LBD/9xGal4UAS, in the presence of 20 nM E2, log10 of molar IC50, mean ± SEM): > -5.00 M
C[C@]12C[C@H](O)[C@H]3[C@@H](CCC4=CC(=O)CC[C@@]43C)[C@@H]1CC[C@@H]2C(=O)CO [Corticosterone, corticosterone]	–	–	–	–	> 10 µM	0.269 µM	> 10 µM	–	> 10 µM	> 10 µM	72.4 nM	> 10 µM	2.63e-05 µM	–
C#C[C@]1(O)CC[C@H]2[C@@H]3CCC4=Cc5oncc5C[C@]4(C)[C@H]3CC[C@@]21C [Danazol, danazol]	–	–	–	–	> 10 µM	> 10 µM	0.245 µM	–	> 10 µM	0.692 µM	91.2 nM	> 10 µM	> 10 µM	–
O=c1c(-c2ccc(O)cc2)coc2cc(O)cc(O)c12 [Genistein, genistein]	–	–	–	–	–	–	–	> 10 µM	–	–	–	–	–	EC50 (GR-LBD fused to Gal4-DBD): > 10 µM; EC50 (PR-LBD fused to Gal4-DBD): > 10000 nM; IC50 (PR-LBD fused to Gal4-DBD): > 10 µM; EC50 (MR-LBD fused to Gal4-DBD): > 10 µM
C[C@]12CC[C@@H]3c4ccc(O)cc4C[C@@H](CCCCCCCCC[S+]([O-])CCCC(F)(F)C(F)(F)F)[C@H]3[C@@H]1CC[C@@H]2O (some centres unmarked) [ICI 182.780]	> -5.00 M	> -5.00 M	> -5.00 M	> -5.00 M	–	–	–	–	–	–	–	–	–	Log EC50 (GR-LBD fused to Gal4-DBD): > -5.00 M; Log IC50 (GR-LBD fused to Gal4-DBD): > -5.00 M; Log IC50 [1]: > -5.00 M; Log EC50 [1]: > -5.00 M
CCCc1c(-c2ccc(O)cc2)nn(-c2ccc(O)cc2)c1-c1ccc(O)cc1 [PPT, propyl pyrazole triol]	–	–	–	–	> 10 µM	> 10 µM	0.0024 µM	> 10 µM	> 10 µM	> 10 µM	4270 nM	0.0115 µM	> 10 µM	–
CCC(=O)[C@@]1(C)CC[C@H]2[C@@H]3CCC4=CC(=O)CCC4=C3CC[C@@]21C [Promegestone (R5020), promegestone]	–	–	–	–	> 10 µM	> 10 µM	> 10 µM	> 10 µM	> 10 µM	> 10 µM	0.0129 nM	> 10 µM	> 10 µM	IC50 [1]: 0.407 µM
C[C@]12C=CC(=O)C=C1CC[C@H]1[C@@H]3C[C@@H](O)[C@](O)(C(=O)CO)[C@@]3(C)C[C@H](O)[C@@]12F [Triamcinolone, triamcinolone]	–	–	–	–	–	0.0102 µM	> 10 µM	–	–	> 10 µM	58.9 nM	> 10 µM	0.0759 µM	–
